Results from US20120225909A1, “INDAZOLE ANALOG” (priority 2009, published 2012).
Read-outs that look alike come from different tables or passages of the source.

Assays:
[1] = biological target: T1, human α1A-adrenergic receptor (Homo sapiens, UniProt P35348); test: Test Case 4-A: human α1A-adrenergic receptor agonist activity (HEK293, Ca flux, Fura-2); type: cell-based; design: expressed in transfected cells; host or cells: HEK293 cells, pcDNA3.1
T1 sequence (P35348 1-466): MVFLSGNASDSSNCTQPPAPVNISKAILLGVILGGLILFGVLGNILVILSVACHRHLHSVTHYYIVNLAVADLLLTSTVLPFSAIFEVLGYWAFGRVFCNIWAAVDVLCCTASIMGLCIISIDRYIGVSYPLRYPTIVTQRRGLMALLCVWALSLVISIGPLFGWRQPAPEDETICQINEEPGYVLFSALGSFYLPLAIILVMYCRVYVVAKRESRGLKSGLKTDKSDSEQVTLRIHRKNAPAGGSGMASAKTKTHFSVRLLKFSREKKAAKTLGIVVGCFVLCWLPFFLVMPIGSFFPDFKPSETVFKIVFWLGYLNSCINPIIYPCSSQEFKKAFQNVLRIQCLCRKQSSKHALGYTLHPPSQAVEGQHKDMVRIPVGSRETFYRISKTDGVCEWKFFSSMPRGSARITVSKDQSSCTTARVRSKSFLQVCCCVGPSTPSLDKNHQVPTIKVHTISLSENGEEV
Procedure: Measurement of Human α1A-Adrenergic Receptor Agonist Activity
The human α1A-adrenergic receptor agonist activity is measured using HEK293 cells transfected by a human α1A gene inserted in pcDNA3.1 (Invitrogen). […] After loading for 30 minutes in a CO2 incubator, the excess Fura-2AM is removed by washing twice with assay buffer. After preparing the centrifuged cells to make 5×10^6 cells/mL by assay buffer, 80 μL/well is dispensed into 96-well UV plates (made by Corning) to make cell plates. Sample plates with the test compound diluted 10-fold by assay buffer from 10^−5 to 10^−12 M and cell plates are set in an FDSS4000 (made by Hamamatsu Photonics). After preincubating for 180 seconds, measurement of fluorescence intensity (excitation wavelength 340 nm, 380 nm, measurement wavelength 500 nm) is begun at 2-second intervals. After approximately 30 seconds of measurement, 20 μL of test sample from a sample plate is added to the cell plate, and measurement is continued for another 270 seconds. The Ca flux caused by the test compound is calculated taking the difference in the maximum value of the fluorescence intensity ratio at 340 nm and 380 nm after adding the test compound and the fluorescence intensity ratio before adding the test compound as the peak height.

[2] = biological target: T2, human β3-adrenergic receptor (Homo sapiens, UniProt P13945); test: Test Case 1-B: human β3-adrenergic receptor agonist activity (cAMP-Screen, 96-well); type: cell-based
T2 construct: A full-length human β3 gene is obtained from a human genomic library (made by Clontech) using this as the probe; expressed in transfected cells; host or cells: CHO (Chinese hamster ovary) cells, pcDNA3
Procedure: Measurement of Human β3-Adrenergic Receptor Agonist Activity
The human β3-adrenergic receptor agonist activity is measured using CHO (Chinese hamster ovary) cells transfected by a human β3 gene inserted in pcDNA3 (Invitrogen). […] A full-length human β3 gene is obtained from a human genomic library (made by Clontech) using this as the probe. These cells are cultured in Ham's F-12 medium containing 10% fetal calf serum and 400 μg/mL genectin (Invitrogen). These cells are sown in 96-well plates to make 2×10^4 cells/well. After culturing for approximately 20 hours, they are allowed to stand for 15 minutes in 80 μL of serum-free Ham's F-12 medium. After first dissolving the test compound by DMSO, it is serially diluted by Ham's F-12 containing 100 mmol/L HEPES and 1 mmol/L isobutylmethylxanthine, and 20 μL is added to the cells. After culturing for 30 minutes, the medium is removed, and 0.1 mL of the assay/lysis buffer contained in the cAMP-Screen kit (made by Applied Bioscience) is added and incubated for 30 minutes at 37° C. The cAMP in this cell lysate is assayed by the above cAMP-Screen kit.

[3] = HEK293; read-out: α1A receptor I.A.
[4] = 0.5 h; read-out: β3 receptor I.A.
[5] = Test Case 4-A; HEK293 cells, Ca flux; Table 4
[6] = Test Case 4-A; maximum response of norepinephrine = 100%; Table 4
[7] = Test Case 1-B; maximum response of isoproterenol = 100%

T2 sequence (P13945 whole entry): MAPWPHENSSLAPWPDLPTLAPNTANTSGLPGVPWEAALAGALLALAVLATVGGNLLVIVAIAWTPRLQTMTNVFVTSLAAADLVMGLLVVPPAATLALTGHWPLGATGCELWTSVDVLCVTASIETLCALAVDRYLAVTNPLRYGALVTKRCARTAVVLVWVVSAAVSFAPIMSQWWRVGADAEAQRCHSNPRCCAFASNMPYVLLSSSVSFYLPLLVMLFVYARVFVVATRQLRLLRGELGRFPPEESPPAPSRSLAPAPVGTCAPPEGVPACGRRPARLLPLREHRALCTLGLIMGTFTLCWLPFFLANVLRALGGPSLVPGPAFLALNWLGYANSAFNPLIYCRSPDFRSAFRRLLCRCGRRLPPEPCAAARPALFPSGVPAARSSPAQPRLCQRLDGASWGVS

Emax [1, 3]	Emax [2, 4]	EC50 ([2]; Test Case 1-B; CHO cells, cAMP)	Molecule	further results
9%	73%	10 nM	O=S(=O)(Nc1cccc([C@@H](O)CNCCOc2ccc3c(C4CCC4)n[nH]c3c2)c1)C1CCC1 [ex233, (R)-N-(3-(2-(2-(3- ?]	
	65%	579 nM	Cc1n[nH]c2cc(OCCNC[C@H](O)c3cccc(NS(=O)(=O)c4cccc(C(F)(F)F)c4)c3)ccc12 [ex65, (R)-N-(3-(1-hydroxy-2-(2-(3-methylindazol-6-yloxy)ethylamino)ethyl)phenyl)-3-(trifluoromethyl)-benzenesulfonamide]	
29%	48%	27 nM	Cc1n[nH]c2cc(OCCNC[C@H](O)c3cccc(NS(=O)(=O)CC(F)(F)F)c3)ccc12 [ex48, (R)-2,2,2-trifluoro-N-(3-(1-hydroxy-2-(2-(3-methylindazol-6-yloxy)ethylamino)ethyl)phenyl) ? sulfonamide]	
0%	48%	125 nM	Cc1n[nH]c2cc(OCCNC[C@H](O)c3cccc(NS(=O)(=O)c4ccc(N)cc4)c3)ccc12 [ex54, (R)-4-amino-N-(3-(1-hydroxy-2-(2-(3-methylindazol-6-yloxy)ethylamino)ethyl)phenyl) benzenesulfonamide]	
0%	32%	131 nM	CCc1n[nH]c2cc(OCCNC[C@H](O)c3cccc(NS(=O)(=O)c4cccc(OC)c4)c3)ccc12 [ex120, (R)-N-(3-(2-(2-(3-ethylindazol-6-yloxy)ethylamino)-1-hydroxyethyl)phenyl)-3-methoxybenzene-sulfonamide]	
26%	93%	17 nM	O=S(=O)(Nc1cccc([C@@H](O)CNCCOc2ccc3c(Cl)n[nH]c3c2)c1)C1CCC1 [ex179, (R)-N-(3-(2-(2-(3-chloroindazol-6-yloxy)ethylamino)-1-hydroxyethyl)phenyl)-cyclobutanesul-fonamide]	EC50 [1, 5]: 436 nM
54%	86%	17 nM	O=S(=O)(Nc1cccc([C@@H](O)CNCCOc2ccc3c(C(F)(F)F)n[nH]c3c2)c1)C1CCC1 [ex210, (R)-N-(3-(1-hydroxy-2-(2-(3-(trifluoro-methyl)-indazol-6-yloxy)ethylamino)ethyl)phenyl)cyclo-clobutanesulfonamide]	EC50 [1, 5]: 1700 nM
			COc1cccc(S(=O)(=O)Nc2cccc([C@@H](O)CNCCOc3ccc4c(OC)n[nH]c4c3)c2)c1 [ex15, (R)-N-(3-(1-hydroxy-2-(2-(3-methoxyindazol-6-yloxy)ethylamino)ethyl)phenyl)-3-methoxy-b ? sulfonamide]	α1A receptor I.A. [1, 6]: 0%
			(R)-N-(3-(1-hydroxy-2- (2-(3-methoxyindazol- 6-yloxy)-ethylamino) ethyl)phenyl)- ? benzenesulfonamide [ex40]	β3 receptor I.A. [2, 7]: 50%
41%	91%	5.7 nM	Cn1cc(S(=O)(=O)Nc2cccc([C@@H](O)CNCCOc3ccc4c(C5CC5)n[nH]c4c3)c2)cn1 [ex225, (R)-N-(3-(2-(2-(3-cyclopropylindazol-6-yloxy)ethylamino)-1-hydroxyethyl)phenyl)-1-methyl-pyrazole-4-sul-fonamide]	EC50 [1, 5]: 981 nM
	65%	208 nM	Cc1n[nH]c2cc(OCCNC[C@H](O)c3cccc(NS(=O)(=O)c4ccccn4)c3)ccc12 [ex64, (R)-N-(3-(1-hydroxy-2-(2-(3-methylindazol-6-yloxy)ethylamino)ethyl)phenyl)pyridine-2-sulfonamide]	
			Cc1n[nH]c2cc(OCCNC[C@H](O)c3cccc(NS(=O)(=O)c4cc(F)c(F)c(F)c4)c3)ccc12 [ex77, (R)-3,4,5-trifluoro-N-(3-(1-hydroxy-2-(2-(3-methylindazol-6-yloxy)ethylamino)ethyl)phenyl) benzenesulfonamide]	β3 receptor I.A. [2, 7]: 59%
0%	64%	146 nM	Cc1n[nH]c2cc(OCCNC[C@H](O)c3cccc(NS(=O)(=O)c4ccccc4Cl)c3)ccc12 [ex51, (R)-2-chloro-N-(3-(1-hydroxy-2-(2-(3-methylindazol-6-yloxy)ethylamino)ethyl)phenyl)ben-zenesulfonamide]	
	88%	291 nM	Cc1n[nH]c2cc(OCCNC[C@H](O)c3cccc(NS(=O)(=O)c4cccc(OC(F)F)c4)c3)ccc12 [ex66, (R)-3-(difluoro-methoxy)-N-(3-(1-hydroxy-2-(2-(3-methylindazol-6-yloxy)ethylamino)ethyl)phenyl) benzenesulfonamide]	
		14 nM	(R)-N-(3-(1-hydroxy- 2-(2-(3-iso- propylindazol-6-yloxy) ethylamino)ethyl) phenyl)cyclopro- panesulfonamide [ex228]	α1A receptor I.A. [1, 6]: 0%; β3 receptor I.A. [2, 7]: 47%
0%	59%	0.91 nM	CCc1n[nH]c2cc(OCCNC[C@H](O)c3cccc(NS(=O)(=O)c4cccs4)c3)ccc12 [ex122, (R)-N-(3-(2-(2-(3-ethylindazol-6-yloxy)ethylamino)-1-hydroxyethyl)phenyl) thiophene-2-sulfonamide]	
0%	50%	0.67 nM	CCc1n[nH]c2cc(OCCNC[C@H](O)c3cccc(NS(=O)(=O)c4ccsc4)c3)ccc12 [ex123, (R)-N-(3-(2-(2-(3-ethylindazol-6-yloxy)ethylamino)-1-hydroxyethyl)phenyl) thiophene-3-sulfonamide]	
35%	86%	15 nM	O=S(=O)(Nc1cccc([C@@H](O)CNCCOc2ccc3c(OC(F)F)n[nH]c3c2)c1)C1CCC1 [ex115, (R)-N-(3-(2-(2-(3-(difluoromethoxy)-indazol-6-yloxy)ethylamino)-1-hydroxyethyl)phenyl)-cyclobutanesul-fonamide]	EC50 [1, 5]: 1100 nM
			Nc1cccc(S(=O)(=O)Nc2cc([C@@H](O)CNCCOc3ccc4c(C(F)(F)F)n[nH]c4c3)ccc2Cl)c1 [ex183, (R)-3-amino-N-(2-chloro-5-(1-hydroxy-2-(2-(3-(trifluoro-methyl)-indazol-6-yloxy)ethylamino)ethyl)phenyl)ben-zenesulfonamide]	β3 receptor I.A. [2, 7]: 72%

Molecule	Emax [1, 3]	Emax [2, 4]	EC50 ([2]; Test Case 1-B; CHO cells, cAMP)	further results
COc1cccc(S(=O)(=O)Nc2cccc([C@@H](O)CNCCOc3ccc4c(OC)n[nH]c4c3)c2)c1 [ex14, (R)-N-(3-(1-hydroxy-2-(2-(3-methoxyindazol-6-yloxy)ethylamino)ethyl)phenyl)-3-methoxy-b ? sulfonamide]	0%			
O=S(=O)(Nc1cccc([C@@H](O)CNCCOc2ccc3c(C4CC4)n[nH]c3c2)c1)C1CC1 [ex227, (R)-N-(3-(2-(2-(3-cyclopropylindazol-6-yloxy)ethylamino)-1-hydroxyethyl)phenyl)-cyclopropane-sulfonamide]			31 nM	α1A receptor I.A. [1, 6]: 1%; β3 receptor I.A. [2, 7]: 65%
Cc1n[nH]c2cc(OCCNC[C@H](O)c3cccc(NS(=O)(=O)c4c(F)cccc4F)c3)ccc12 [ex69, (R)-2,6-difluoro-N-(3-(1-hydroxy-2-(2-(3-methylindazol-6-yloxy)ethylamino)ethyl)phenyl) benzenesulfonamide]		72%	594 nM	
Cc1n[nH]c2cc(OCCNC[C@H](O)c3cccc(NS(=O)(=O)C4CCCC4)c3)ccc12 [ex237, (R)—N-(3-(1-hydroxy-2-(2-(3-methylindazol-6-yloxy)ethylamino)ethyl)phenyl)cyclopentanesulfonamide]			293 nM	Emax ([1]; HEK293, read-out: α1A receptor I.A.): 0%; Emax ([2]; 0.5 h, read-out: β3 receptor I.A.): 58%
